Experimental data taken from patent US20140371210A1, “METHODS AND COMPOSITIONS FOR RAPID TRANSBUCCAL DELIVERY OF ACTIVE AGENTS” (Jaleva Pharmaceuticals, LLC, priority 2011, published 2014).
Read-outs that look alike come from different tables or passages of the source.

What was measured:
[1] = system: human cells
[2] = cited from earlier work

Compound	cytoprotective effect of resin composition [1]	logD ([2]; pH 7.4)	logD ([2]; pH 5.5)
Cc1nnc2n1-c1ccc(Cl)cc1C(c1ccccc1)=NC2 [alprazolam]	cytoprotective effect has been shown	–	–
O=C(O)Cc1ccccc1Nc1c(Cl)cccc1Cl [diclofenac]	cytoprotective effect has been shown	–	–
CC[C@H]1OC(=O)[C@H](C)[C@@H](O[C@H]2C[C@@](C)(OC)[C@@H](O)[C@H](C)O2)[C@H](C)[C@@H](O[C@@H]2O[C@H](C)C[C@H](N(C)C)[C@H]2O)[C@](C)(O)C[C@@H](C)C(=O)[C@H](C)[C@@H](O)[C@]1(C)O [erythromycin]	cytoprotective effect has been shown	–	–
CC(C)Cc1ccc(C(C)C(=O)O)cc1 (stereo not shown) [ibuprofen]	cytoprotective effect has been shown	–	–
CNS(=O)(=O)CCc1ccc2[nH]cc(C3CCN(C)CC3)c2c1 [naratriptan]	–	−0.85	–
CN1CCCC1c1cccnc1 (stereo not shown) [nicotine]	cytoprotective effect has been shown	−0.62	–
Cc1nccn1CC1CCc2c(c3ccccc3n2C)C1=O (stereo not shown) [ondansetron]	cytoprotective effect has been shown	1.2	–
CCCc1nn(C)c2c(=O)[nH]c(-c3cc(S(=O)(=O)N4CCN(C)CC4)ccc3OCC)nc12 [sildenafil]	–	2.26	1.83
CCCc1nc(C)c2c(=O)[nH]c(-c3cc(S(=O)(=O)N4CCN(CC)CC4)ccc3OCC)nn12 [vardenafil]	–	3.71	2.26
